{"source": "patent US20240156999A1", "about": "“MULTIMERIC CHELATOR COMPOUNDS FOR USE IN TARGETED RADIOTHERAPY” (Bayer Aktiengesellschaft, priority 2021, published 2024)", "key": {"[1]": {"assay": "Radiochemical purity (RCP) by iTLC after radiolabeling with Ra-223", "format": "physicochemical", "settings": "for labelling efficiency with radium-223: compared to monomeric macropa, at 0.1 and 0.02 mM, as low as 0.005 mM for Oct2; for RCP Ra-223: iTLC", "procedure": "(§1) Aliquots of Ac-225 in 0.04 M HCl or Ra-223 in 0.05 M HCl were withdrawn into Eppendorf tubes. The radioactivity in each tube was measured by HPGe detector. Solutions of compounds in 0.1 M sodium acetate, pH 5-5.5 (with additional 0.1 M NaCl for ACC solutions) were added to the tubes. RAC was in the range of 1-5 M Bq/mL and specific activity in the range of 2-200 kBq/nmol. The labelling solutions were left for 60-90 min at room temperature.\n(§2) Radiochemical purity (RCP) of the labeled compounds was determined by iTLC. iTLC strips were cut from silica impregnated chromatography paper, approx. 1 cm wide and 11 cm long. The strips were marked with a pen at 1 cm (application point), 4 cm (cut line for ACCs) or 5 cm (cut line for chelators) and 8 cm (front line). A beaker was filled up to 0.5 cm with 0.1 M citrate in 0.9% NaCl, pH 5.5. 1-10 μL of the radiolabeled compound was added to the application point and the strips immediately placed vertically in the beaker. The strips were removed when the solvent front reached the front line and then cut in two sections at the cut line. Each section was measured using a HPGe detector (ORTEC) to determine the radioactivity origin from the nuclide of interest. The RCP, in percentage, forthe nuclide of interest was calculated using the following equation: […]"}, "[2]": {"assay": "Radiochemical purity (RCP) by iTLC after radiolabeling with Ac-225", "format": "physicochemical", "settings": "labelling concentration 0.02 mM", "procedure": "as §1, §2"}, "[3]": {"settings": "cited from earlier work"}, "[4]": {"assay": "Radio-HPLC analysis of Ra-223 labelled compound with peak fractioning", "format": "physicochemical", "procedure": "Radiolabeled compounds were analyzed by radio-HPLC using either a) Vanquish HPLC system (Thermo) equipped with a diode array detector and a Flowstar LB 514 radio detector (Berthold technologies); or b) an 1290 Infinity-II HPLC system (Agilent) equipped with a diode array detector and flow-count radio detector (Eckert & Ziegler).\nLabelled chelator compounds were eluted using A=40 mM TRIS/6 mM citrate/2 mM EDTA and B=ACN/MeOH (8:2); aKinetexC18 (30×2.1 mm), 1.7 μm, 100 Å, Phenomenex); gradient 5-50% B for 10 min; flow rate of 0.3 mL/min or a Discovery RP amide c16 (150×2.1mm), 5 um, 100 Å, Gradient: 5-50% B for 12.5 min; flow rate of 0.6 mL/min.\nRadio-HPLC peak fractioning was performed to determine the radionuclide(s) associated to each radio peak. The collected peak fractions were analysed using an HPGe detector."}, "[5]": {"settings": "labelling concentration 0.02 mM"}, "[6]": {"settings": "labelling concentration 0.005 mM"}, "[7]": {"settings": "labelling concentration 0.27 mM"}}, "data": [{"smiles": "COC(=O)c1cccc(CN2CCOCCOCCN(Cc3cc(NC(=O)COCC(=O)NCCN(CCN)CCCN(CCN)CCNC(=O)COCC(=O)Nc4cc(CN5CCOCCOCCN(Cc6cccc(C(=O)OC)n6)CCOCCOCC5)nc(C(=O)OC)c4)cc(C(=O)OC)n3)CCOCCOCC2)n1", "note": "[Dim1, Dimethyl 4,4′-{[9,13-bis(2-aminoethyl)-1,5,17,21-tetraoxo-3,19-dioxa-6,9,13,16-tetraazahenicosane-1,21-diyl]diimino}bis{6-[(16-{[6-(methoxycarbonyl)pyridin-2-yl]methyl}-1,4,10,13-tetraoxa-7,16-diazacyclooctadecan-7-yl)methyl]pyridine-2-carboxylate}]", "values": [{"measurement": "labelling efficiency with radium-223", "setting": "[1]", "value": "high labelling efficiency"}, {"measurement": "RCP Ra-223", "setting": "[1]; [5]", "value": 80, "unit": "%"}, {"measurement": "RCP Ac-225", "setting": "[2]", "value": 100, "unit": "%"}]}, {"smiles": "O=C(O)c1cccc(CN2CCOCCOCCN(Cc3cccc(CN4CCOCCOCCN(Cc5cccc(C(=O)O)n5)CCOCCOCC4)n3)CCOCCOCC2)n1", "note": "[Dim2, 6,6′-[pyridine-2,6-diylbis(methylene-1,4,10,13-tetraoxa-7,16-diazacyclooctadecane-16,7-diylmethylene)]dipyridine-2-carboxylic acid]", "values": [{"measurement": "RCP Ra-223", "setting": "[1]; labelling concentration 0.2 mM", "value": 11, "unit": "%"}, {"measurement": "RCP Ac-225", "setting": "[2]", "value": 100, "unit": "%"}]}, {"smiles": "O=C(O)c1cccc(CN2CCOCCOCCN(Cc3cccc(C(=O)NCCCC[C@@H](NC(=O)c4cccc(CN5CCOCCOCCN(Cc6cccc(C(=O)O)n6)CCOCCOCC5)n4)C(=O)O)n3)CCOCCOCC2)n1", "note": "[Dim3, 6-[[16-[[6-[[(5R)-5-carboxy-5-[[6-[[16-[(6-carboxy-2-pyridyl)methyl]-1,4,10,13-tetraoxa-7,16-diazacyclooctadec-7-yl]methyl]pyridine-2-carbonyl]amino]pentyl]carbamoyl]-2-pyridyl]methyl]-1,4,10,13-tetraoxa-7,16-diazacyclooctadec-7-yl]methyl]pyridine-2-carboxylic acid]", "values": [{"measurement": "RCP Ra-223", "setting": "[1]; labelling concentration 0.2 mM", "value": 32, "unit": "%"}, {"measurement": "RCP Ac-225", "setting": "[2]", "value": 100, "unit": "%"}]}, {"smiles": "O=C(O)c1cccc(CN2CCOCCOCCN(Cc3cccc(C(=O)O)n3)CCOCCOCC2)n1", "note": "[Macropa, 6,6′-[1,4,10,13-tetraoxa-7,16-diazacyclooctadecane-7,16-diylbis(methylene)]dipyridine-2-carboxylic acid, reference compound]", "values": [{"measurement": "complexation of radium-223", "setting": "[1]; at 0.1, 0.02 and 0.005 mM concentrations", "value": "no complexation of radium-223 was observed"}, {"measurement": "RCP Ra-223", "setting": "[1]; [6]", "value": 8, "unit": "%"}, {"measurement": "RCP Ra-223", "setting": "[1]; [7]", "value": 12, "unit": "%"}, {"measurement": "RCP Ac-225", "setting": "[2]", "value": 100, "unit": "%"}, {"measurement": "selectivity for large over small alkaline earth metals", "setting": "[3]", "value": "excellent selectivity"}, {"measurement": "affinity for Ba2+", "setting": "[3]; pH 7.4", "value": "highest affinity"}]}, {"smiles": "Nc1cc(CN2CCOCCOCCN(Cc3cccc(C(=O)O)n3)CCOCCOCC2)nc(C(=O)O)c1", "note": "[Macropa-NH2, reference compound]", "values": [{"measurement": "RCP Ra-223", "setting": "[1]; labelling concentration 0.1 mM", "value": 2, "unit": "%"}, {"measurement": "RCP Ra-223", "setting": "[1]; [7]", "value": 12, "unit": "%"}, {"measurement": "RCP Ac-225", "setting": "[2]", "value": 99, "unit": "%"}]}, {"smiles": "O=C(CCc1cc(CN2CCOCCOCCN(Cc3cccc(C(=O)O)n3)CCOCCOCC2)nc(C(=O)O)c1)NCCCC[C@H](NC(=O)CCc1cc(CN2CCOCCOCCN(Cc3cccc(C(=O)O)n3)CCOCCOCC2)nc(C(=O)O)c1)C(=O)NCCN(CCCN(CCNC(=O)[C@H](CCCCNC(=O)CCc1cc(CN2CCOCCOCCN(Cc3cccc(C(=O)O)n3)CCOCCOCC2)nc(C(=O)O)c1)NC(=O)CCc1cc(CN2CCOCCOCCN(Cc3cccc(C(=O)O)n3)CCOCCOCC2)nc(C(=O)O)c1)CCNC(=O)[C@H](CCCCNC(=O)CCc1cc(CN2CCOCCOCCN(Cc3cccc(C(=O)O)n3)CCOCCOCC2)nc(C(=O)O)c1)NC(=O)CCc1cc(CN2CCOCCOCCN(Cc3cccc(C(=O)O)n3)CCOCCOCC2)nc(C(=O)O)c1)CCNC(=O)[C@H](CCCCNC(=O)CCc1cc(CN2CCOCCOCCN(Cc3cccc(C(=O)O)n3)CCOCCOCC2)nc(C(=O)O)c1)NC(=O)CCc1cc(CN2CCOCCOCCN(Cc3cccc(C(=O)O)n3)CCOCCOCC2)nc(C(=O)O)c1", "note": "[Oct2]", "values": [{"measurement": "labelling efficiency with radium-223", "setting": "[1]", "value": "high labelling efficiency"}, {"measurement": "RCP Ra-223", "setting": "[1]; [6]", "value": 64, "unit": "%"}]}, {"smiles": "COC(=O)c1cccc(CN2CCOCCOCCN(Cc3cc(NC(=O)COCC(=O)NCCN(CCCN(CCNC(=O)COCC(=O)Nc4cc(CN5CCOCCOCCN(Cc6cccc(C(=O)OC)n6)CCOCCOCC5)nc(C(=O)OC)c4)CCNC(=O)COCC(=O)Nc4cc(CN5CCOCCOCCN(Cc6cccc(C(=O)OC)n6)CCOCCOCC5)nc(C(=O)OC)c4)CCNC(=O)COCC(=O)Nc4cc(CN5CCOCCOCCN(Cc6cccc(C(=O)OC)n6)CCOCCOCC5)nc(C(=O)OC)c4)cc(C(=O)OC)n3)CCOCCOCC2)n1", "note": "[Tet1]", "values": [{"measurement": "labelling efficiency with radium-223", "setting": "[1]", "value": "high labelling efficiency"}, {"measurement": "RCP Ra-223", "setting": "[1]; [5]", "value": 95, "unit": "%"}, {"measurement": "RCP Ac-225", "setting": "[2]", "value": 99, "unit": "%"}, {"measurement": "labeling of solution with Ra-223", "setting": "[4]; 0.02 mM solution", "value": "efficient labeling"}, {"measurement": "wash through of free radioactivity in the void volume", "setting": "[4]; radio HPLC, Ra-223 labelled", "value": "almost no wash through of free radioactivity"}]}, {"smiles": "O=C(COCC(=O)Nc1cc(CN2CCOCCOCCN(Cc3cccc(C(=O)O)n3)CCOCCOCC2)nc(C(=O)O)c1)NCCN(CCCN(CCNC(=O)COCC(=O)Nc1cc(CN2CCOCCOCCN(Cc3cccc(C(=O)O)n3)CCOCCOCC2)nc(C(=O)O)c1)CCNC(=O)COCC(=O)Nc1cc(CN2CCOCCOCCN(Cc3cccc(C(=O)O)n3)CCOCCOCC2)nc(C(=O)O)c1)CCNC(=O)COCC(=O)Nc1cc(CN2CCOCCOCCN(Cc3cccc(C(=O)O)n3)CCOCCOCC2)nc(C(=O)O)c1", "note": "[Tet2, 4,4′-[(9,13-bis{2-[2-(2-{[2-carboxy-6-({16-[(6-carboxypyridin-2-yl)methyl]-1,4,10,13-tetraoxa-7,16-diazacyclooctadecan-7-yl}methyl)pyridin-4-yl]amino}-2-oxoethoxy)acetamido]ethyl}-1,5,17,21-tetraoxo-3,19-dioxa-6,9,13,16-tetraazahenicosane-1,21-diyl)diimino]bis[6-({16-[(6-carboxypyridin-2-yl)methyl]-1,4,10,13-tetraoxa-7,16-diazacyclooctadecan-7-yl}methyl)pyridine-2-carboxylic acid]]", "values": [{"measurement": "labelling efficiency with radium-223", "setting": "[1]", "value": "high labelling efficiency"}, {"measurement": "RCP Ra-223", "setting": "[1]; [5]", "value": 74, "unit": "%"}]}, {"smiles": "O=C(CCc1cc(CN2CCOCCOCCN(Cc3cccc(C(=O)O)n3)CCOCCOCC2)nc(C(=O)O)c1)NCCN(CCCN(CCNC(=O)CCc1cc(CN2CCOCCOCCN(Cc3cccc(C(=O)O)n3)CCOCCOCC2)nc(C(=O)O)c1)CCNC(=O)CCc1cc(CN2CCOCCOCCN(Cc3cccc(C(=O)O)n3)CCOCCOCC2)nc(C(=O)O)c1)CCNC(=O)CCc1cc(CN2CCOCCOCCN(Cc3cccc(C(=O)O)n3)CCOCCOCC2)nc(C(=O)O)c1", "note": "[Tet5, 4,4′-[7,11-bis(2-{3-[2-carboxy-6-({16-[(6-carboxypyridin-2-yl)methyl]-1,4,10,13-tetraoxa-7,16-diazacyclooctadecan-7-yl}methyl)pyridin-4-yl]propanamido}ethyl)-3,15-dioxo-4,7,11,14-tetraazaheptadecane-1,17-diyl]bis[6-({16-[(6-carboxypyridin-2-yl)methyl]-1,4,10,13-tetraoxa-7,16-diazacyclooctadecan-7-yl}methyl)pyridine-2-carboxylic acid]]", "values": [{"measurement": "labelling efficiency with radium-223", "setting": "[1]", "value": "high labelling efficiency"}, {"measurement": "RCP Ra-223", "setting": "[1]; [6]", "value": 36, "unit": "%"}, {"measurement": "RCP Ra-223", "setting": "[1]; [5]", "value": 95, "unit": "%"}]}, {"smiles": "COC(=O)c1cccc(CN2CCOCCOCCN(Cc3cc(NC(=O)COCC(=O)NCCN(CCN)CCCN(CCNC(=O)COCC(=O)Nc4cc(CN5CCOCCOCCN(Cc6cccc(C(=O)OC)n6)CCOCCOCC5)nc(C(=O)OC)c4)CCNC(=O)COCC(=O)Nc4cc(CN5CCOCCOCCN(Cc6cccc(C(=O)OC)n6)CCOCCOCC5)nc(C(=O)OC)c4)cc(C(=O)OC)n3)CCOCCOCC2)n1", "note": "[Tri1]", "values": [{"measurement": "labelling efficiency with radium-223", "setting": "[1]", "value": "high labelling efficiency"}, {"measurement": "RCP Ra-223", "setting": "[1]; [5]", "value": 89, "unit": "%"}]}]}
